Consider eight compounds from patent publication US7968579B2, “Antifungal triazole derivatives” (Daewoong Pharmaceutical Co., Ltd., priority 2005, dated 2011).

As a reminder, the MIC is the lowest concentration found to suppress growth. Read a low MIC as greater potency.

One data set deals with Aspergillus flavus. Kind of data set: In vitro assay for antifungal activity. It counts as cell-based. To be noted: RPMI 1640, 1% DMSO, concentration at which 50% of the fungi were inhibited vs negative control, alamarblue; for MIC: Aspergillus flavus. The method, then: (§1) Fungal strains to be tested were inoculated onto Sabouraud dextrose agar, YM agar, and Potato dextrose agar and sufficiently cultured at 35° C. for two to three days. Individual single colonies of the yeast fungi selected out of the cultured strains were sufficiently suspended in 5 ml of 0.85% sterile physiological saline, followed by correction to adjust the absorbance thereof at 530 nm to 0.108. The suspensions were diluted serially by 1:50 and then 1:20 in RPMI 1640 media to prepare liquid inocula ranging in cell count from 1.0×10^3 to 5.0×10^3 CFU/ml.
(§2) Antifungal samples were prepared by diluting the compounds of the present inventions in RPMI 1640 media to serial concentrations ranging from 0.0625 to 32 μg/ml. As a vehicle, DMSO was contained in a final concentration of 1% (V/V) in the antifungal samples. 0.1 ml of each of the dilutions in series was added to equal volume of each of the fungal inocula.
(§3) Concentrations of the compounds at which 50% of the fungi were inhibited compared to the negative control were determined using the growth indicator alamarblue.
For orientation: Alamar Blue is a resazurin reagent that responds to reducing activity.

In a further data set the test system is Aspergillus fumigatus. Kind of data set: In vitro assay for antifungal activity. Type of data set: cell-based. To be noted: RPMI 1640, 1% DMSO, concentration at which 50% of the fungi were inhibited vs negative control, alamarblue; for MIC: Aspergillus fumigatus. The method, then:
as §1, §2, §3

Another data set deals with Aspergillus terreus. The experiment in a line: In vitro assay for antifungal activity. It counts as cell-based. As to conditions: RPMI 1640, 1% DMSO, concentration at which 50% of the fungi were inhibited vs negative control, alamarblue; for MIC: Aspergillus terreus. The method, then:
as §1, §2, §3

Data set [1] deals with Candida albicans. The experiment in a line: In vitro assay for antifungal activity. It counts as cell-based. As to conditions: RPMI 1640, 1% DMSO, concentration at which 50% of the fungi were inhibited vs negative control, alamarblue, 24 hours; for MIC: Candida albicans. The protocol: as §1, §2, §3
The test system of another data set is Candida glabrata. The experiment in a line: In vitro assay for antifungal activity. As to conditions: RPMI 1640, 1% DMSO, concentration at which 50% of the fungi were inhibited vs negative control, alamarblue, 24 hours; for MIC: Nakaseomyces glabratus. It counts as cell-based. The method, then: as §1, §2, §3
A further data set deals with Candida krusei. Kind of data set: In vitro assay for antifungal activity. It counts as cell-based. To be noted: RPMI 1640, 1% DMSO, concentration at which 50% of the fungi were inhibited vs negative control, alamarblue, 24 hours; for MIC: Pichia kudriavzevii. The method, then: as §1, §2, §3
Another data set has as its system Candida parapsilosis. The experiment in a line: In vitro assay for antifungal activity. Type of data set: cell-based. To be noted: RPMI 1640, 1% DMSO, concentration at which 50% of the fungi were inhibited vs negative control, alamarblue, 24 hours; for MIC: Lodderomyces parapsilosis. The protocol: as §1, §2, §3
A further data set has as its system Candida tropicalis. The experiment in a line: In vitro assay for antifungal activity. It counts as cell-based. As to conditions: RPMI 1640, 1% DMSO, concentration at which 50% of the fungi were inhibited vs negative control, alamarblue, 24 hours; for MIC: Candida tropicalis. The method, then:
as §1, §2, §3

The subject of the next data set is Cryptococcus neoformans. The experiment in a line: In vitro assay for antifungal activity. To be noted: RPMI 1640, 1% DMSO, concentration at which 50% of the fungi were inhibited vs negative control, alamarblue; for MIC: Cryptococcus neoformans. It counts as cell-based. The method, then:
as §1, §2, §3

A short description of data set [2]: Assay for acute toxicity in mice. Type of data set: in vivo. To be noted: oral administration, suspension in aqueous 0.5% methylcellulose, up to a dose of 2000 mg/kg, two weeks.
Data set [3] deals with Candida albicans. The experiment in a line: In vivo assay for antifungal activity (systemic candidiasis). To be noted: male mice infected i.v. with Candida albicans; 20 mg/kg orally once a day for seven days; at 28 days after the infection. The protocol:
Azole compounds synthesized in Examples were assayed for antifungal activity in vivo.
A suspension containing Candida albicans in a concentration ranging from 7×10^7 to 8×10^7 cfu/ml was intravenously injected at a dose of 0.1 ml/head into 10 male mice. 2 hrs after the injection, the compounds of the present inventions were orally administered at a dose of 20 mg/kg to respective mice in groups of 10. The compounds were administered once a day for seven days. The periods of time for which the infected mice lived were counted. The number of mice that survived the fungal infection was represented as % survival for each test group.

≈ marks a conversion by molar mass, not a printed value.

On to `C[C@@H](n1cc(-c2ccccc2)cn1)[C@](O)(Cn1cncn1)c1ccc(F)cc1F` [Example 2], for which, in the data set on Aspergillus flavus, the “Antifungal Activity (MIC) Aspergillus flavus” value was 4 µg/mL. Besides, the “Antifungal Activity (MIC) Aspergillus fumigatus” value in the data set on Aspergillus fumigatus is 1 µg/mL. Also, the “Antifungal Activity (MIC) Aspergillus terreus” value in the data set with Aspergillus terreus amounted to 4 µg/mL. Also, in the data set with Candida albicans [1], the “Antifungal Activity (MIC) Candida albicans” value is reported as “≦0.015 μg/ml”. Moreover, the “Antifungal Activity (MIC) Candida glabrata” value in the data set with Candida glabrata worked out at 2 µg/mL. In addition, the “Antifungal Activity (MIC) Candida krusei” value in the data set with Candida krusei turned out to be 0.5 µg/mL. In the data set on Candida parapsilosis, the “Antifungal Activity (MIC) Candida parapsilosis” value is “≦0.015 μg/ml”. In addition, the “Antifungal Activity (MIC) Candida tropicalis” value with Candida tropicalis worked out at 0.25 µg/mL. In addition, the “Antifungal Activity (MIC) Cryptococcus neoformans” value in the data set with Cryptococcus neoformans is 0.25 µg/mL.

As to `C[C@@H](n1cc(-c2ccccc2F)cn1)[C@](O)(Cn1cncn1)c1ccc(F)cc1F` [Example 3, (2R,3R)-3-(4-(2-fluorophenyl)1H-pyrazole-1-yl)-2-(2,4-difluorophenyl)-1-(1H-1,2,4-triazole-1-yl)butane-2-ol], the minimum inhibitory concentration (MIC) is 4 µg/mL (≈ 9.68 µM) with Aspergillus flavus; 0.5 µg/mL (≈ 1.21 µM) with Aspergillus fumigatus; 2 µg/mL (≈ 4.84 µM) in the data set on Aspergillus terreus; at most 0.015 µg/mL in the data set on Candida albicans [1]; 2 µg/mL (≈ 4.84 µM) in the data set with Candida glabrata; 1 µg/mL (≈ 2.42 µM) in the data set with Candida krusei. In addition, the minimum inhibitory concentration (MIC) against Candida parapsilosis was 0.031 µg/mL (≈ 0.075 µM); in the data set with Candida tropicalis it was 1 µg/mL (≈ 2.42 µM); against Cryptococcus neoformans, 0.125 µg/mL (≈ 0.302 µM).

On to `C[C@@H](n1cc(-c2cccc(F)c2)cn1)[C@](O)(Cn1cncn1)c1ccc(F)cc1F` [Example 8, (2R,3R)-3-(4-(3-fluorophenyl)-1H-pyrazole-1-yl)-2-(2,4-difluorophenyl)-1-(1H-1,2,4-triazole-1-yl)butane-2-ol], for which the minimal inhibitory concentration (MIC) is 8 µg/mL (≈ 19.4 µM) with Aspergillus flavus; 1 µg/mL (≈ 2.42 µM) against Aspergillus fumigatus; 2 µg/mL (≈ 4.84 µM) in the data set on Aspergillus terreus; at most 0.015 µg/mL against Candida albicans [1]; 2 µg/mL (≈ 4.84 µM) against Candida glabrata; 0.5 µg/mL (≈ 1.21 µM) against Candida krusei. The MIC in the data set on Candida parapsilosis was at most 0.015 µg/mL; against Candida tropicalis, 0.25 µg/mL (≈ 0.605 µM); against Cryptococcus neoformans it was 0.031 µg/mL (≈ 0.075 µM).

Take `C[C@@H](n1cc(-c2cccc(Cl)c2)cn1)[C@](O)(Cn1cncn1)c1ccc(F)cc1F` [Example 9, (2R,3R)-3-(4-(3-chlorophenyl)-1H-pyrazole-1-yl)-2-(2,4-difluorophenyl)-1-(1H-1,2,4-triazole-1-yl)butane-2-ol]: the minimal inhibitory concentration (MIC) against Aspergillus flavus is 8 µg/mL (≈ 18.6 µM); against Aspergillus fumigatus it was 2 µg/mL (≈ 4.65 µM); in the data set with Aspergillus terreus, 4 µg/mL (≈ 9.31 µM); against Candida albicans [1], at most 0.015 µg/mL; against Candida glabrata, 1 µg/mL (≈ 2.33 µM); against Candida krusei, 0.25 µg/mL (≈ 0.582 µM). Also, the values for the MIC against Candida parapsilosis, against Candida tropicalis and in the data set with Cryptococcus neoformans were at most 0.015 µg/mL, 0.063 µg/mL (≈ 0.147 µM) and 0.25 µg/mL (≈ 0.582 µM), respectively.

Turning to `C[C@@H](n1cc(-c2ccc(Cl)cc2)cn1)[C@](O)(Cn1cncn1)c1ccc(F)cc1F` [Example 14, (2R,3R)-3-(4-(4-chlorophenyl)-1H-pyrazole-1-yl)-2-(2,4-difluorophenyl)-1-(1H-1,2,4-triazole-1-yl)butane-2-ol], the minimum inhibitory concentration (MIC) in the data set with Aspergillus flavus is 4 µg/mL (≈ 9.31 µM); with Aspergillus fumigatus, 1 µg/mL (≈ 2.33 µM); with Aspergillus terreus, 2 µg/mL (≈ 4.65 µM); against Candida albicans [1] it was at most 0.015 µg/mL; against Candida glabrata it was 2 µg/mL (≈ 4.65 µM); against Candida krusei it was 0.25 µg/mL (≈ 0.582 µM). In addition, the MIC in the data set with Candida parapsilosis is at most 0.015 µg/mL; against Candida tropicalis it was 0.031 µg/mL (≈ 0.0721 µM); against Cryptococcus neoformans, 0.25 µg/mL (≈ 0.582 µM). For the same compound, the “toxic syndromes (acute toxicity)” value in [2] was “not to suffer from any toxic syndromes”.

As to `C[C@@H](n1cc(-c2ccc(Br)cc2)cn1)[C@](O)(Cn1cncn1)c1ccc(F)cc1F` [Example 15, (2R,3R)-3-(4-(4-bromophenyl)-1H-pyrazole-1-yl)-2-(2,4-difluorophenyl)-1-(1H-1,2,4-triazole-1-yl)butane-2-ol], the minimum inhibitory concentration (MIC) in the data set on Aspergillus flavus is 4 µg/mL (≈ 8.43 µM); against Aspergillus fumigatus it was 1 µg/mL (≈ 2.11 µM); against Aspergillus terreus, 1 µg/mL (≈ 2.11 µM); with Candida albicans [1], at most 0.015 µg/mL; against Candida glabrata, 2 µg/mL (≈ 4.22 µM); with Candida krusei, 0.5 µg/mL (≈ 1.05 µM). Moreover, the minimal inhibitory concentration (MIC) against Candida parapsilosis was at most 0.015 µg/mL; in the data set on Candida tropicalis it was 0.125 µg/mL (≈ 0.264 µM); with Cryptococcus neoformans, 0.125 µg/mL (≈ 0.264 µM).

Regarding `C[C@@H](n1cc(-c2ccc([N+](=O)[O-])cc2)cn1)[C@](O)(Cn1cncn1)c1ccc(F)cc1F` [Example 17, (2R,3R)-2-(2,4-difluorophenyl)-3-(4-(4-nitrophenyl)-1H-pyrazole-1-yl)-1-(1H-1,2,4-triazole-1-yl)butane-2-ol], the minimal inhibitory concentration (MIC) against Aspergillus flavus was 8 µg/mL (≈ 18.2 µM); against Aspergillus fumigatus it was 2 µg/mL (≈ 4.54 µM); against Aspergillus terreus, 2 µg/mL (≈ 4.54 µM); in the data set with Candida albicans [1] it was at most 0.015 µg/mL; in the data set on Candida glabrata, 4 µg/mL (≈ 9.08 µM); against Candida krusei, 0.25 µg/mL (≈ 0.568 µM). In addition, the MIC is at most 0.015 µg/mL against Candida parapsilosis, 0.125 µg/mL (≈ 0.284 µM) against Candida tropicalis and 0.031 µg/mL (≈ 0.0704 µM) against Cryptococcus neoformans. Also, the “toxic syndromes (acute toxicity)” value in data set [2] is reported as “not to suffer from any toxic syndromes”.

For the compound `OC(Cn1cncn1)(Cn1cncn1)c1ccc(F)cc1F` [Fluconazole, reference compound], the MIC against Aspergillus flavus was over 128 µg/mL; in the data set on Aspergillus fumigatus it was over 128 µg/mL; in the data set on Aspergillus terreus it was over 128 µg/mL; against Candida albicans [1], 4 µg/mL (≈ 13.1 µM); against Candida glabrata it was over 32 µg/mL; in the data set with Candida krusei, over 32 µg/mL. Moreover, the MIC with Candida parapsilosis was over 8 µg/mL; in the data set on Candida tropicalis it was over 8 µg/mL; in the data set on Cryptococcus neoformans, 8 µg/mL (≈ 26.1 µM). Also, in the data set on Candida albicans [3], the “% survival” value is listed as 10%.
